TGI data for six molecules are collected here from PubChem BioAssay (NCI).

Among the test systems are A549 NSCLC; CCRF-CEM leukemia; EKVX NSCLC; HCT-116 colon; HOP-92 NSCLC; HS 578T breast; IGROV1 ovarian; MALME-3M melanoma; MDA-MB-435; NCI-H23 lung; NCI-H460 lung; RXF 393 renal; SF-295 CNS; SK-MEL-28 melanoma; SK-MEL-5 melanoma; SK-OV-3 ovarian; SR leukemia; T-47D breast; TK-10 renal.
Holding throughout (experiment): DTP human tumour cell line panel, 48 h

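Assay format: 96-well plates, 48-hour exposure. TGI marks complete inhibition of growth.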

Turning to `CN(C)c1ccc(-c2ccc(N(C)C)c3n[se]nc23)c2n[se]nc12`, the total growth inhibition concentration (TGI) in the experiment with A549 NSCLC, in the experiment with CCRF-CEM leukemia, in the experiment with EKVX NSCLC, in the experiment on HCT-116 colon, in the experiment with HOP-92 NSCLC and in the experiment with HS 578T breast was more than 100 µM throughout. Also, the TGI in the experiment on IGROV1 ovarian, in the experiment on MALME-3M melanoma, with MDA-MB-435, in the experiment with NCI-H23 lung, in the experiment with NCI-H460 lung and in the experiment on RXF 393 renal was more than 100 µM each time. For the same molecule, the TGI in the experiment with SF-295 CNS, in the experiment on SK-MEL-28 melanoma, in the experiment on SK-MEL-5 melanoma, with SK-OV-3 ovarian, in the experiment on SR leukemia and with T-47D breast was more than 100 µM each time. Moreover, in the experiment with TK-10 renal, the TGI is more than 100 µM.
Consider `COc1ccccc1N=N/C(=N\NC(=O)c1ccc(C)cc1)c1ccc(N(CCC#N)CCC#N)cc1C`, for which the TGI in the experiment on A549 NSCLC, in the experiment on CCRF-CEM leukemia, in the experiment with EKVX NSCLC, in the experiment with HCT-116 colon, in the experiment on HOP-92 NSCLC and with HS 578T breast was more than 100 µM each time. Further, the TGI is more than 100 µM with IGROV1 ovarian; 77.4 µM in the experiment with MALME-3M melanoma; more than 100 µM in the experiment on MDA-MB-435; 94.4 µM with NCI-H23 lung; more than 100 µM with NCI-H460 lung; more than 100 µM with RXF 393 renal. Moreover, the TGI is more than 100 µM with SF-295 CNS; more than 100 µM in the experiment with SK-MEL-28 melanoma; 53.6 µM with SK-MEL-5 melanoma; more than 100 µM with SK-OV-3 ovarian; more than 100 µM in the experiment with SR leukemia; more than 100 µM in the experiment on T-47D breast. In the experiment on TK-10 renal, this molecule registered a TGI of more than 100 µM.
As to `N#Cc1c(Cl)nc2ccccc2c1N=[N+]=[N-]`, the TGI in the experiment with A549 NSCLC amounted to 35.3 µM; in the experiment on CCRF-CEM leukemia, 4.24 µM; with EKVX NSCLC it was 5.53 µM; in the experiment with HCT-116 colon it was 3.06 µM; in the experiment with HOP-92 NSCLC it was 3.32 µM; with HS 578T breast it was 17.3 µM. Also, the TGI stood at 3.9 µM in the experiment on IGROV1 ovarian; 3.75 µM with MALME-3M melanoma; 17.7 µM with MDA-MB-435; 6.3 µM in the experiment on NCI-H23 lung; 21.4 µM in the experiment on NCI-H460 lung; 2.93 µM in the experiment on RXF 393 renal. Besides, the total growth inhibition concentration (TGI) worked out at 22.4 µM in the experiment with SF-295 CNS; 9.11 µM in the experiment on SK-MEL-28 melanoma; 27.7 µM with SK-MEL-5 melanoma; 29 µM in the experiment on SK-OV-3 ovarian; 3.93 µM in the experiment with SR leukemia; 5.83 µM with T-47D breast. The molecule also registered a TGI with TK-10 renal of 9.82 µM.
Regarding `Cc1sc(C)c2c1C(=O)CC2N` (centres undefined), the TGI with A549 NSCLC is more than 100 µM; in the experiment on CCRF-CEM leukemia, 6.68 µM; in the experiment on EKVX NSCLC it was more than 100 µM; in the experiment with HCT-116 colon, 28.9 µM; in the experiment with HOP-92 NSCLC, 40.7 µM; with HS 578T breast it was 98 µM. The TGI in the experiment with IGROV1 ovarian is more than 69 µM; in the experiment on MALME-3M melanoma, 28.4 µM; in the experiment with MDA-MB-435, 53.6 µM; in the experiment on NCI-H23 lung, more than 96.2 µM; in the experiment with NCI-H460 lung, more than 70.2 µM; in the experiment with RXF 393 renal it was 34.8 µM. The TGI in the experiment on SF-295 CNS is more than 100 µM; with SK-MEL-28 melanoma, more than 62.5 µM; in the experiment with SK-MEL-5 melanoma, more than 100 µM; in the experiment on SK-OV-3 ovarian, more than 100 µM; in the experiment with SR leukemia, more than 100 µM; with T-47D breast, more than 83 µM. The molecule further gave a total growth inhibition concentration (TGI) in the experiment on TK-10 renal of 33.5 µM.
As for `O=C(CCCl)NNC1=NCCCCN1`, the concentration for total growth inhibition (TGI) with A549 NSCLC, in the experiment with CCRF-CEM leukemia, with EKVX NSCLC, in the experiment on HCT-116 colon, in the experiment on HOP-92 NSCLC and in the experiment on HS 578T breast was more than 100 µM each time. Moreover, the TGI in the experiment with IGROV1 ovarian, with MALME-3M melanoma, with MDA-MB-435, in the experiment on NCI-H23 lung, in the experiment on NCI-H460 lung and in the experiment with RXF 393 renal was more than 100 µM each time. In addition, the TGI in the experiment with SF-295 CNS, in the experiment on SK-MEL-28 melanoma, with SK-MEL-5 melanoma, in the experiment with SK-OV-3 ovarian, in the experiment with SR leukemia and in the experiment with T-47D breast was more than 100 µM each time. The TGI with TK-10 renal is more than 100 µM.
For the molecule `O=c1c2cc(Cl)ccc2[nH]c2cc(O)cc(O)c12`, the TGI with A549 NSCLC, with CCRF-CEM leukemia, in the experiment with EKVX NSCLC, with HCT-116 colon, with HOP-92 NSCLC and in the experiment with HS 578T breast was more than 10 µM throughout. In addition, the TGI in the experiment with IGROV1 ovarian, in the experiment on MALME-3M melanoma, with MDA-MB-435, in the experiment on NCI-H23 lung, in the experiment with NCI-H460 lung and with RXF 393 renal was more than 10 µM throughout. Also, the TGI in the experiment on SF-295 CNS, in the experiment on SK-MEL-28 melanoma, with SK-MEL-5 melanoma, with SK-OV-3 ovarian, with SR leukemia and with T-47D breast was more than 10 µM in each case. The same molecule yielded a TGI in the experiment with TK-10 renal of more than 10 µM.

Broadly, the TGI is the concentration at which net growth stops.
